Data set [1] deals with Burkholderia pseudomallei. Briefly: microbe, parasite or virus in culture. Type of data set: cell-based. The following applies: for MIC: Burkholderia pseudomallei, 24 h, read-out: MIC Bp; for MIC Bp: 24 h at 37 °C, cation-adjusted Mueller–Hinton II broth, mean of two replicates.
The subject of a further data set is Pseudomonas aeruginosa. Briefly: microbe, parasite or virus in culture. It counts as cell-based. The following applies: for MIC: Pseudomonas aeruginosa, 24 h, read-out: MIC Pa.
A further data set has as its system Escherichia coli. As to the kind of experiment: microbe, parasite or virus in culture. Type of data set: cell-based. Conditions: 24 h, read-out: MIC Ec.
For data set [2], the system named is Staphylococcus aureus Newman. As to the kind of experiment: microbe, parasite or virus in culture. It counts as cell-based. Conditions: for MIC: Staphylococcus aureus, NEWMAN, 24 h, read-out: MIC Sa.
A short description of data set [3]: Transepithelial transport assay (Papp), HBEC air–liquid interface cultures on Transwells. Conditions: human, Papp (apparent permeability), mean ± standard deviation, apical to basal over 24 h, approx. 5 mg/mL apical.
On the set-up of data set [4]: method as in PMID 29096171, PMID 7629560. Conditions: delivered via injection; cited from earlier work.
Setting [5] is: compound set 2, three donors (L8 excluded).

In brackets after ≈: the same amount, converted by molar mass.

In general, Papp refers to the rate of passage across a membrane or cell layer, normalised by area and donor concentration. On to `CC(C)(O/N=C(/C(=O)N[C@@H]1C(=O)N2C(C(=O)[O-])=C(C[n+]3ccccc3)CS[C@H]12)c1csc(N)n1)C(=O)NCCOCCOCCOCCOCCOCCNc1ccnc(N)n1` [Compound 15, PEG5-pyrimidin-2-amine-ceftazidime], for which the MIC in data set [1] is 200 µg/mL (≈ 222 µM); with Pseudomonas aeruginosa, more than 200 µg/mL; in the data set on Escherichia coli it was 38 µg/mL (≈ 42.1 µM); in data set [2] it was 50 µg/mL (≈ 55.4 µM). The Papp at 24 h in data set [3] (compound set 1, three donors) was 1.75 ± 0.06 ×10⁻⁶ cm/s.

As for `CC(C)(O/N=C(/C(=O)N[C@@H]1C(=O)N2C(C(=O)[O-])=C(C[n+]3ccccc3)CS[C@H]12)c1csc(N)n1)C(=O)NCCCCCCOCCCCc1ccccc1` [Compound 6], the MIC in data set [1] was more than 200 µg/mL; in the data set on Pseudomonas aeruginosa, 200 µg/mL (≈ 257 µM); in the data set on Escherichia coli it was 100 µg/mL (≈ 129 µM); in data set [2], 3 µg/mL (≈ 3.86 µM). For the same compound, in data set [3] (setting [5]), the Papp at 24 h turned out to be 2.45 ± 0.21 ×10⁻⁶ cm/s.

For `CN1CCN(CCNC(=O)C(C)(C)O/N=C(/C(=O)N[C@@H]2C(=O)N3C(C(=O)[O-])=C(C[n+]4ccccc4)CS[C@H]23)c2csc(N)n2)CC1` [Compound 12], in data set [1], the “MIC Bp” value is not below 100 µg/mL and the MIC was more than 200 µg/mL. In addition, in the data set with Pseudomonas aeruginosa, the MIC Pa is not below 100 µg/mL and the MIC is more than 200 µg/mL. In addition, the MIC in the data set with Escherichia coli was not below 100 µg/mL. Also, in data set [2], the MIC Sa was not below 100 µg/mL and the MIC was more than 200 µg/mL. Moreover, in data set [3] (setting [5]), the apparent permeability (Papp) at 24 h is 2.6 ± 0.94 ×10⁻⁶ cm/s.

With `CC(C)(O/N=C(\C(=O)N[C@@H]1C(=O)N2C(C(=O)[O-])=C(C[n+]3ccccc3)CS[C@H]12)c1csc(N)n1)C(=O)O` [Ceftazidime pentahydrate, ceftazidime pentahydrate, reference compound], the MIC in data set [1] stood at 3 µg/mL; in the data set with Pseudomonas aeruginosa it was 6 µg/mL; in the data set with Escherichia coli, 0.4 µg/mL; in data set [2], 13 µg/mL. Besides, in data set [4], the “penetration ratio (PELF-to-total plasma concentration)” value is 20–30%. Besides, the Papp at 24 h in data set [3] (compound set 1, three donors) was 3.36 ± 0.18 ×10⁻⁶ cm/s; in data set [3] (setting [5]), 2.54 ×10⁻⁶ cm/s.

With `CC(C)(O/N=C(/C(=O)N[C@@H]1C(=O)N2C(C(=O)[O-])=C(C[n+]3ccccc3)CS[C@H]12)c1csc(N)n1)C(=O)NC(CCC(=O)O)C(=O)O` (some centres unmarked) [Compound 13], the MIC in data set [1] is 200 µg/mL (≈ 296 µM); in the data set on Pseudomonas aeruginosa, 200 µg/mL (≈ 296 µM); in the data set with Escherichia coli it was less than 15 µg/mL; in data set [2] it was 200 µg/mL (≈ 296 µM). Further, the apparent permeability (Papp) at 24 h in data set [3] (setting [5]) is 2.79 ± 0.91 ×10⁻⁶ cm/s.

With `CC(C)(O/N=C(/C(=O)N[C@@H]1C(=O)N2C(C(=O)[O-])=C(C[n+]3ccccc3)CS[C@H]12)c1csc(N)n1)C(=O)NCCCS(=O)(=O)c1ccc(B(O)O)cc1` [Compound 17], the MIC worked out at 200 µg/mL (≈ 259 µM) in data set [1], 200 µg/mL (≈ 259 µM) with Pseudomonas aeruginosa, 50 µg/mL (≈ 64.8 µM) in the data set with Escherichia coli and 13 µg/mL (≈ 16.8 µM) in data set [2]. The apparent permeability coefficient (Papp) at 24 h in data set [3] (setting [5]) was determined as 3.33 ± 0.36 ×10⁻⁶ cm/s.

For the compound `CC(C)(O/N=C(/C(=O)N[C@@H]1C(=O)N2C(C(=O)[O-])=C(C[n+]3ccccc3)CS[C@H]12)c1csc(N)n1)C(=O)NCCCSc1ccc(B(O)O)cc1` [Compound 16, 4-propylthiophenyl boronic acid-ceftazidime], the MIC was 200 µg/mL (≈ 270 µM) in data set [1], more than 200 µg/mL in the data set with Pseudomonas aeruginosa, 50 µg/mL (≈ 67.6 µM) with Escherichia coli and 3 µg/mL (≈ 4.06 µM) in data set [2]. In addition, the Papp at 24 h in data set [3] (setting [5]) was determined as 4.9 ± 1.4 ×10⁻⁶ cm/s.

Consider `CC(C)(O/N=C(/C(=O)N[C@@H]1C(=O)N2C(C(=O)[O-])=C(C[n+]3ccccc3)CS[C@H]12)c1csc(N)n1)C(=O)NCCc1ccccc1` [Compound 3], for which the MIC was found to be 200 µg/mL (≈ 308 µM) in data set [1], 200 µg/mL (≈ 308 µM) in the data set with Pseudomonas aeruginosa, 100 µg/mL (≈ 154 µM) in the data set with Escherichia coli and 3 µg/mL (≈ 4.62 µM) in data set [2]. Further, the apparent permeability (Papp) at 24 h in data set [3] (setting [5]) is 4.65 ± 0.86 ×10⁻⁶ cm/s.

For `COCCOCCOCCOCCOCCOCCOCCOCCNC(=O)C(C)(C)O/N=C(/C(=O)N[C@@H]1C(=O)N2C(C(=O)[O-])=C(C[n+]3ccccc3)CS[C@H]12)c1csc(N)n1` [Compound 9], in data set [1], the “MIC Bp” value was not below 100 µg/mL and the MIC is more than 200 µg/mL. In the data set on Pseudomonas aeruginosa, the MIC Pa was not below 100 µg/mL and the MIC was more than 200 µg/mL. For the same compound, the MIC in the data set on Escherichia coli is not below 100 µg/mL. For the same compound, in data set [2], the MIC Sa is not below 100 µg/mL and the MIC came to 200 µg/mL (≈ 219 µM). Further, the Papp at 24 h in data set [3] (compound set 1, three donors) is 1.86 ± 0.39 ×10⁻⁶ cm/s.

For `CC(C)(O/N=C(/C(=O)N[C@@H]1C(=O)N2C(C(=O)[O-])=C(C[n+]3ccccc3)CS[C@H]12)c1csc(N)n1)C(=O)NCCNc1ccnc(N)n1` [Compound 14], in data set [1], the “MIC Bp” value was not below 100 µg/mL and the MIC is more than 200 µg/mL. Besides, in the data set on Pseudomonas aeruginosa, the MIC Pa is not below 100 µg/mL and the MIC turned out to be 100 µg/mL (≈ 147 µM). Further, in the data set with Escherichia coli, the MIC is not below 100 µg/mL. Besides, in data set [2], the MIC Sa is not below 100 µg/mL and the MIC is more than 200 µg/mL. The Papp at 24 h in data set [3] (setting [5]) is 2.03 ± 0.6 ×10⁻⁶ cm/s.

For the compound `CC(C)(O/N=C(/C(=O)N[C@@H]1C(=O)N2C(C(=O)[O-])=C(C[n+]3ccccc3)CS[C@H]12)c1csc(N)n1)C(=O)NC1C(O)O[C@H](CO)[C@@H](O)[C@@H]1O` (some centres unmarked) [Compound 10], the “MIC Bp” value in data set [1] is less than 60 µg/mL. In addition, the MIC is 38 µg/mL (≈ 53.7 µM) in data set [1], 50 µg/mL (≈ 70.6 µM) in the data set on Pseudomonas aeruginosa, less than 4 µg/mL in the data set with Escherichia coli and 150 µg/mL (≈ 212 µM) in data set [2]. This compound showed an MIC Pa in the data set on Pseudomonas aeruginosa of less than 60 µg/mL. Further, the Papp at 24 h in data set [3] (setting [5]) stood at 2.75 ± 0.68 ×10⁻⁶ cm/s.

Consider `CC(C)(O/N=C(/C(=O)N[C@@H]1C(=O)N2C(C(=O)[O-])=C(C[n+]3ccccc3)CS[C@H]12)c1csc(N)n1)C(=O)NCCNC(=O)c1ccc(B(O)O)cc1` [Compound 18], for which, in data set [1], the “MIC Bp” value is less than 60 µg/mL and the MIC worked out at 50 µg/mL (≈ 67.9 µM). Besides, in the data set with Pseudomonas aeruginosa, the MIC Pa is less than 60 µg/mL and the MIC was found to be 50 µg/mL (≈ 67.9 µM). Also, the MIC in data set [2] stood at 25 µg/mL (≈ 33.9 µM). In addition, the Papp at 24 h in data set [3] (setting [5]) stood at 2.21 ± 0.45 ×10⁻⁶ cm/s.

With `CCN(CC)CCNC(=O)C(C)(C)O/N=C(/C(=O)N[C@@H]1C(=O)N2C(C(=O)[O-])=C(C[n+]3ccccc3)CS[C@H]12)c1csc(N)n1` [Compound 11], the MIC in data set [1] is 75 µg/mL (≈ 116 µM); in the data set with Pseudomonas aeruginosa it was 150 µg/mL (≈ 233 µM); with Escherichia coli it was 63 µg/mL (≈ 97.7 µM); in data set [2] it was 25 µg/mL (≈ 38.8 µM). The MIC Sa in data set [2] is less than 40 µg/mL. Besides, the apparent permeability coefficient (Papp) at 24 h in data set [3] (compound set 1, three donors) came out at 3.58 ± 0.5 ×10⁻⁶ cm/s.

As to `CCCCNC(=O)C(C)(C)O/N=C(/C(=O)N[C@@H]1C(=O)N2C(C(=O)[O-])=C(C[n+]3ccccc3)CS[C@H]12)c1csc(N)n1` [Compound 1, n-butyl-ceftazidime], the MIC in data set [1] was found to be 200 µg/mL (≈ 332 µM); with Pseudomonas aeruginosa, 200 µg/mL (≈ 332 µM); in the data set with Escherichia coli, 100 µg/mL (≈ 166 µM); in data set [2], 6 µg/mL (≈ 9.97 µM). The Papp at 24 h in data set [3] (compound set 1, three donors) came out at 1.91 ± 0.45 ×10⁻⁶ cm/s.

In the case of `COCCOCCOCCNC(=O)C(C)(C)O/N=C(/C(=O)N[C@@H]1C(=O)N2C(C(=O)[O-])=C(C[n+]3ccccc3)CS[C@H]12)c1csc(N)n1` [Compound 7], the MIC was more than 200 µg/mL in data set [1], more than 200 µg/mL in the data set with Pseudomonas aeruginosa, 100 µg/mL (≈ 145 µM) in the data set on Escherichia coli and 50 µg/mL (≈ 72.3 µM) in data set [2]. Further, in data set [3] (setting [5]), the apparent permeability coefficient (Papp) at 24 h came to 3.6 ± 1.1 ×10⁻⁶ cm/s.

Consider `CC(C)(O/N=C(/C(=O)N[C@@H]1C(=O)N2C(C(=O)[O-])=C(C[n+]3ccccc3)CS[C@H]12)c1csc(N)n1)C(=O)NCCc1cc(O)c(O)cc1Cl` [Compound 4], for which the “MIC Bp” value in data set [1] was less than 60 µg/mL. In addition, the MIC is 1.6 µg/mL (≈ 2.23 µM) in data set [1], 19 µg/mL (≈ 26.5 µM) with Pseudomonas aeruginosa, less than 15 µg/mL in the data set on Escherichia coli and 38 µg/mL (≈ 53.1 µM) in data set [2]. The compound also displayed an MIC Pa in the data set on Pseudomonas aeruginosa of less than 60 µg/mL. In data set [3] (setting [5]), the apparent permeability (Papp) at 24 h was determined as 2.94 ± 0.63 ×10⁻⁶ cm/s.

Turning to `COCCOCCOCCOCCOCCNC(=O)C(C)(C)O/N=C(/C(=O)N[C@@H]1C(=O)N2C(C(=O)[O-])=C(C[n+]3ccccc3)CS[C@H]12)c1csc(N)n1` [Compound 8], the “MIC Bp” value in data set [1] is not below 100 µg/mL. Also, the MIC in data set [1] was more than 200 µg/mL; with Pseudomonas aeruginosa it was more than 200 µg/mL; in the data set on Escherichia coli, not below 100 µg/mL; in data set [2], 100 µg/mL (≈ 128 µM). The compound further came in with an MIC Pa against Pseudomonas aeruginosa not below 100 µg/mL. Further, in data set [2], the MIC Sa is not below 100 µg/mL. Further, in data set [3] (compound set 1, three donors), the Papp at 24 h is 2.23 ± 0.22 ×10⁻⁶ cm/s.

With `CC(C)(O/N=C(/C(=O)N[C@@H]1C(=O)N2C(C(=O)[O-])=C(C[n+]3ccccc3)CS[C@H]12)c1csc(N)n1)C(=O)NCCCS(=O)(=O)c1ccccc1` [Compound 5], the MIC was 150 µg/mL (≈ 206 µM) in data set [1], 200 µg/mL (≈ 275 µM) in the data set with Pseudomonas aeruginosa, less than 15 µg/mL in the data set on Escherichia coli and 13 µg/mL (≈ 17.9 µM) in data set [2]. The Papp at 24 h in data set [3] (setting [5]) was found to be 2.71 ± 0.93 ×10⁻⁶ cm/s.

The values are drawn from PMC11852049, “Impact of Hydrophobic, Hydrophilic, and Mucus-Binding Motifs on the Therapeutic Potential of Ceftazidime Analogs for Pulmonary Administration” (Antibiotics, 2025).
